Source: patent US8735584B2 (Merck Patent GmbH, priority 2008, dated 2014)
pIC50: −log10 of the molar value.

target: T1, GST-Aurora A (Homo sapiens, UniProt O14965); assay: Aurora A IC50, Caliper LC3000 mobility shift assay; type: biochemical; conditions: LC3000 method; 15 uM ATP (the KM value); read-out: Aurora Kinase A Activity (IC50)
T1 construct: N-terminal GST fusion with full length Aurora A (1-403 amino acids); purchased Carna Biosciences 05-101
T1 sequence (O14965 1-403): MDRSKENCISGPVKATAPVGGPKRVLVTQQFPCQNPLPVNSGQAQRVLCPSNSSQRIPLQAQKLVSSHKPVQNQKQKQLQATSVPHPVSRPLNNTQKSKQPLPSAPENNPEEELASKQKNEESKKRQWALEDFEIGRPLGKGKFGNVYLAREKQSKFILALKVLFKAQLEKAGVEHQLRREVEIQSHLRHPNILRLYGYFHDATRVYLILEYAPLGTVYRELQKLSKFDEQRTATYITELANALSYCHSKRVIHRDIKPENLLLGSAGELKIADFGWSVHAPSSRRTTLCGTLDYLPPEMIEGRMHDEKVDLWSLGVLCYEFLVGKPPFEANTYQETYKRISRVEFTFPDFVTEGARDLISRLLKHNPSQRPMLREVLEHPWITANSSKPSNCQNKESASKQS
In short: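 GST-tagged full-length Aurora A (0.067 ng/ul) with 15 uM ATP (KM) and 1 uM FITC-LRRASLG peptide in 100 mM HEPES pH 7.5, 1 mM MgCl2, 1 mM DTT, Brij-35; 90 min at 25 C, EDTA stop. Off-chip mobility shift read of substrate-to-product conversion; IC50 from sigmoidal dose-response.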

pIC50	Structure (SMILES)
7.00 to 7.96	O=C(CN1CCC(Nc2ccnc3[nH]c(=O)c4ccccc4c23)CC1)Nc1cccc(F)c1 [Compound 373, N-(3-Fluorophenyl)-2-(4-(6-oxo-5,6-dihydrobenzo[c][1,8]naphthyridin-1-ylamino)piperidin-1-yl)acetamide]
> 7.96	O=C(Nc1ccc(Nc2ccnc3[nH]c(=O)c4ccccc4c23)cc1)c1cccc(Cl)c1 [Compound 393, 3-Chloro-N-[4-(6-oxo-5,6-dihydro-benzo[c][1,8]naphthyridin-1-ylamino)-phenyl]-benzamide]
7.00 to 7.96	O=C(Nc1ccc(Nc2ccnc3[nH]c(=O)c4ccccc4c23)cc1)c1cccnc1 [Compound 344]
7.00 to 7.96	O=c1[nH]c2nccc(Nc3ccc(OCc4cccc(F)c4)cc3)c2c2ccccc12 [Compound 330, 1-(4-(3-Fluorobenzyloxy)phenylamino)benzo[c][1,8]naphthyridin-6(5H)-one]
< 7.00	CC(C(=O)Nc1ccccc1)N1CCC(Nc2ccnc3[nH]c(=O)c4ccccc4c23)CC1 (stereo not shown) [Compound 287, 2-(4-(6-oxo-5,6-dihydrobenzo[c][1,8]naphthyridin-1-ylamino)piperidin-1-yl)-N-phenylpropanamide]
< 7.00	N#Cc1ccccc1CNc1ccc2c(=O)[nH]c3ncccc3c2c1 [Compound 462, 2-((6-oxo-5,6-dihydrobenzo[c][1,8]naphthyridin-9-ylamino)methyl)benzonitrile]
7.00 to 7.96	COc1cc2c(=O)[nH]c3nccc(Nc4ccccc4F)c3c2cc1OC [Example 216, 1-(2-Fluoro-phenylamino)-8,9-dimethoxy-5H-benzo[c][1,8]naphthyridin-6-one]
7.00 to 7.96	O=c1[nH]c2ncccc2c2cc(NCc3ccccc3F)ccc12 [Example 44, 9-(2-Fluoro-benzylamino)-5H-benzo[c][1,8]naphthyridin-6-one]
> 7.96	NCCNC(=O)c1ccc2c(=O)[nH]c3nccc(Nc4ccc(NC(=O)c5ccccc5)cc4)c3c2c1 [Compound 284, N-(2-Aminoethyl)-1-(4-benzamidophenylamino)-6-oxo-5,6-dihydrobenzo[c][1,8]naphthyridine-9-carboxamide]
< 7.00	O=C(Cc1cc(Nc2ccnc3[nH]c(=O)c4ccccc4c23)n[nH]1)Nc1ccccc1 [Compound 315, 2-(3-(6-Oxo-5,6-dihydrobenzo[c][1,8]naphthyridin-1-ylamino)-1H-pyrazol-5-yl)-N-phenylacetamide]
7.00 to 7.96	CN(C)C(=O)c1ccc2c(=O)[nH]c3nccc(Nc4ccc(NC(=O)c5ccccc5)cc4)c3c2c1 [Compound 283, 1-(4-Benzamidophenylamino)-N,N-dimethyl-6-oxo-5,6-dihydrobenzo[c][1,8]naphthyridine-9-carboxamide]
< 7.00	O=C(Nc1ccc(Nc2ccnc3[nH]c(=O)c4ccccc4c23)cc1)c1ccccc1OCCCN1CCOCC1 [Compound 357, 2-(3-morpholinopropoxy)-N-(4-(6-oxo-5,6-dihydrobenzo[c][1,8]naphthyridin-1-ylamino)phenyl)benzamide]
> 7.96	CN(C)CCNC(=O)c1ccc2c(=O)[nH]c3nccc(Nc4ccc(NC(=O)c5ccccc5)cc4)c3c2c1 [Compound 285, 1-(4-benzamidophenylamino)-N-(2-(dimethylamino)ethyl)-6-oxo-5,6-dihydrobenzo[c][1,8]naphthyridine-9-carboxamide]
7.00 to 7.96	COc1cc2c(=O)[nH]c3nccc(Nc4ccc(Cl)cc4)c3c2cc1OC [Example 213, 1-(4-Chloro-phenylamino)-8,9-dimethoxy-5H-benzo[c][1,8]naphthyridin-6-one]
< 7.00	O=c1[nH]c2ncccc2c2cc(NCc3ccc4c(c3)OCO4)ccc12 [Compound 476, 9-(Benzo[d][1,3]dioxol-5-ylmethylamino)benzo[c][1,8]naphthyridin-6(5H)-one]
< 7.00	CN1CCCC1CCNc1ccc2c(=O)[nH]c3ncccc3c2c1 (stereo not shown) [Compound 475, 9-(2-(1-Methylpyrrolidin-2-yl)ethylamino)benzo[c][1,8]naphthyridin-6(5H)-one]
7.00 to 7.96	O=C(Cn1cc(Nc2ccnc3[nH]c(=O)c4ccc(F)cc4c23)cn1)Nc1ccc(F)cc1 [Compound 421]

pIC50	Structure (SMILES)
> 7.96	NCc1ccc2c(=O)[nH]c3nccc(Nc4ccc(NC(=O)c5ccccc5)cc4)c3c2c1 [Compound 280, N-(4-(9-(Aminomethyl)-6-oxo-5,6-dihydrobenzo[c][1,8]naphthyridin-1-ylamino)phenyl)benzamide]
7.00 to 7.96	O=C(Nc1ccc(Nc2ccnc3[nH]c(=O)c4ccccc4c23)cc1)c1ncccc1F [Compound 506, 3-Fluoro-N-(4-(6-oxo-5,6-dihydrobenzo[c][1,8]naphthyridin-1-ylamino)phenyl)picolinamide]
> 7.96	Cc1ccc(C(=O)Nc2ccc(Nc3ccnc4[nH]c(=O)c5ccccc5c34)cc2)cc1 [Compound 394, 4-Methyl-N-[4-(6-oxo-5,6-dihydro-benzo[c][1,8]naphthyridin-1-ylamino)-phenyl]-benzamide]
< 7.00	O=C(Cc1cc(Nc2ccnc3[nH]c(=O)c4ccccc4c23)n[nH]1)Nc1cccc(F)c1 [Compound 314, N-(3-Fluorophenyl)-2-(3-(6-oxo-5,6-dihydrobenzo[c][1,8]naphthyridin-1-ylamino)-1H-pyrazol-5-yl)acetamide]
7.00 to 7.96	O=C(Nc1ccc(Nc2ccnc3[nH]c(=O)c4ccccc4c23)cc1)c1cccc2c1OCC2 [Compound 433, 2,3-Dihydro-benzofuran-7-carboxylic acid [4-(6-oxo-5,6-dihydro-benzo[c][1,8]naphthyridin-1-ylamino)-phenyl]-amide]
7.00 to 7.96	O=c1[nH]c2nccc(Oc3ccc(NS(=O)(=O)c4cccc(Cl)c4Cl)cc3)c2c2ccccc12 [Example 173, 2,3-Dichloro-N-[4-(6-oxo-5,6-dihydro-benzo[c][1,8]naphthyridin-1-yloxy)-phenyl]-benzenesulfonamide]
< 7.00	O=C(Nc1ccc(Oc2ccnc3[nH]c(=O)c4ccccc4c23)cc1F)c1cccn(-c2ccc(F)cc2)c1=O [Example 187, 1-(4-Fluoro-phenyl)-2-oxo-1,2-dihydro-pyridine-3-carboxylic acid [2-fluoro-4-(6-oxo-5,6-dihydro-benzo[c][1,8]naphthyridin-1-yloxy)-phenyl]-amide]
> 7.96	O=C(O)c1ccc2c(c1)c(=O)[nH]c1nccc(Nc3ccc(NC(=O)c4ccccc4)cc3)c12 [Compound 268, 1-(4-Benzamidophenylamino)-6-oxo-5,6-dihydrobenzo[c][1,8]naphthyridine-8-carboxylic acid]
7.00 to 7.96	O=C(NC1CCC(Nc2ccnc3[nH]c(=O)c4ccccc4c23)CC1)c1ccc(F)c(F)c1 (stereo not shown) [Compound 402, 3,4-Difluoro-N-[4-(6-oxo-5,6-dihydro-benzo[c][1,8]naphthyridin-1-ylamino)-cyclohexy]-benzamide]
> 7.96	O=C(Nc1ccc(Nc2ccnc3[nH]c(=O)c4cc(F)ccc4c23)cc1)c1ccc(F)cc1C(F)(F)F [Compound 414, 4-Fluoro-N-[4-(8-fluoro-6-oxo-5,6-dihydro-benzo[c][1,8]naphthyridin-1-ylamino)-phenyl]-2-trifluoromethyl-benzamide]
< 7.00	CN(C)CCNC(=O)c1ccc2c(=O)[nH]c3nccc(Cl)c3c2c1 [Compound 296, 1-Chloro-N-(2-(dimethylamino)ethyl)-6-oxo-5,6-dihydrobenzo[c][1,8]naphthyridine-9-carboxamide]
< 7.00	O=C(Cc1cc(Nc2ccnc3[nH]c(=O)c4ccccc4c23)n[nH]1)Nc1ccc(F)c(F)c1 [Compound 313, N-(3,4-Difluorophenyl)-2-(3-(6-oxo-5,6-dihydrobenzo[c][1,8]naphthyridin-1-ylamino)-1H-pyrazol-5-yl)acetamide]
< 7.00	CN(C(=O)CN1CCC(Nc2ccnc3[nH]c(=O)c4ccccc4c23)CC1)c1ccccc1 [Compound 377, N-Methyl-2-(4-(6-oxo-5,6-dihydrobenzo[c][1,8]naphthyridin-1-ylamino)piperidin-1-yl)-N-phenylacetamide]
< 7.00	Cn1ccnc1Sc1ccc(Nc2ccnc3[nH]c(=O)c4ccccc4c23)cc1Cl [Example 156, 1-[3-Chloro-4-(1-methyl-1H-imidazol-2-ylsulfanyl)-phenylamino]-5H-benzo[c][1,8]naphthyridin-6-one]
> 7.96	COc1cc2c(=O)[nH]c3nccc(Nc4ccc(NC(=O)c5ccccc5)cc4)c3c2cc1OC [Compound 409, N-[4-(8,9-Dimethoxy-6-oxo-5,6-dihydro-benzo[c][1,8]naphthyridin-1-ylamino)-phenyl]-benzamide]
7.00 to 7.96	O=C(CC1CC1)Nc1ccc(Nc2ccnc3[nH]c(=O)c4ccccc4c23)cc1 [Compound 352, 2-Cyclopropyl-N-(4-(6-oxo-5,6-dihydrobenzo[c][1,8]naphthyridin-1-ylamino)phenyl)acetamide]
7.00 to 7.96	O=C(Nc1ccc(Nc2ccnc3[nH]c(=O)c4ccccc4c23)cc1)C1(c2ccccc2)CCCC1 [Compound 494, N-(4-(6-Oxo-5,6-dihydrobenzo[c][1,8]naphthyridin-1-ylamino)phenyl)-1-phenylcyclopentanecarboxamide]
